In patent US6998233B2, “Methods for ligand discovery” (Sunesis Pharmaceuticals, Inc., priority 1998, dated 2006):
Where two headings read alike, the source gives them in different places. Values belong to the compound of their own block, whether it stands above or below them.

Key:
caspase-3 [1] = molecular target: T1, caspase-3 (Homo sapiens, UniProt P42574); assay: Caspase-3 inhibition (Ki); assay type: biochemical; settings: for change of binding affinity relative to compound 18: removal of hydroxyl group / hydroxyl and acid moiety
T1 sequence (P42574 29-175 limits assumed): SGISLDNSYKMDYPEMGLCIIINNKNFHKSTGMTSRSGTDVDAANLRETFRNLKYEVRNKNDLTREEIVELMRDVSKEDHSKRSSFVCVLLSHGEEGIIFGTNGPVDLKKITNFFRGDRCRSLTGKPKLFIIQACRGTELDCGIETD
T1 sequence (P42574 176-277 limits assumed): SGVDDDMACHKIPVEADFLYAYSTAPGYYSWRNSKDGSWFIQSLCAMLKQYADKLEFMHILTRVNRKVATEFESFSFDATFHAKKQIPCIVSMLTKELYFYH

E. coli TS = E. coli TS (Escherichia coli, UniProt P0A884); assay: Thymidylate synthase inhibition, enzymatic assay (Michaelis-Menten kinetics) on tether-free analogs; assay type: biochemical
Sequence of E. coli TS (P0A884 whole entry): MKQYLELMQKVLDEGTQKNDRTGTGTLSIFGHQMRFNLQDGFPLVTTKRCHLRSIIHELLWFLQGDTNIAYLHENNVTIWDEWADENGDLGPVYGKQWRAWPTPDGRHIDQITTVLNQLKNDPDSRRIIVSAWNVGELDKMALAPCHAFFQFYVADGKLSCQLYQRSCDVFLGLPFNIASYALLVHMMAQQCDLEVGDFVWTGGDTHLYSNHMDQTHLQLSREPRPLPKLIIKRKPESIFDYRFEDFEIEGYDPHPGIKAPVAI
Excerpt: TS is an ideal validating target for several reasons. […] Second, a simple colorimetric assay exists for determining whether a potential ligand binds to TS. This assay depends on the rate of conversion of 5,10-CH2—H4folate to H2folate in the presence of dUMP. A second assay for binding is also spectrophotometric and relies on competition with pyridoxal-5′-phosphate (“PLP”), which forms a complex with TS with a unique spectral signature.
The TS chosen for the purposes of illustration is the E. coli TS. […] The E. coli TS includes four other cysteines but these are not conserved among other TS enzymes and are buried and thus not accessible. However, if one or more of these cysteines were reactive toward disulfides, then mutant versions of these enzymes can be used where these cysteines are mutated to another amino acid such as alanine.
In one illustrative example, the tethering experiment is performed in the presence of a known substrate. […] In contrast, a ligand candidate that lacks an inherent binding affinity or cysteamine would be easily displaced by the substrate. Another illustrative example is traditional enzymatic assays on the tether-free analog. For example, the affinity of the [drawing 14] R^c portion of the ligand fragment was determined using Michaelis-Mention kinetics.
The inhibition constants of the untethered versions of the selected ligand candidates were determined.

[2] = molecular target: T2, target-extender complex 13′ (caspase-3 modified with extender 13) (Homo sapiens, UniProt P42574); assay: Tethering with extender, target-extender complex 13′; assay type: binding; settings: library of about 10,000 ligand candidates
T2 construct: made in house
T2 sequence (P42574 29-175): T1 sequence (P42574 29-175 limits assumed)
T2 sequence (P42574 176-277): T1 sequence (P42574 176-277 limits assumed)
Excerpt: (§1) Target-extender complexes 13′ and 14′ were each used in the tethering method against a library of about 10,000 ligand candidates. An illustrative example of a selected ligand-candidate using target-extender complex 13′ is [drawing 39]
(§2) This example describes the modification of caspase-3 with extender 13. Caspase-3 was cloned, overexpressed, and purified using standard techniques. […] The protein was concentrated in a Ultrafree 5 MWCO unit and the buffer exchanged to 0.1 M TES pH 7.5 using a Nap-5 column.

[3] = molecular target: T3, target-extender complex 14′ (caspase-3 modified with extender 14) (Homo sapiens, UniProt P42574); assay: Tethering with extender, target-extender complex 14′; assay type: binding; settings: library of about 10,000 ligand candidates
T3 construct: made in house
T3 sequence (P42574 29-175): T1 sequence (P42574 29-175 limits assumed)
T3 sequence (P42574 176-277): T1 sequence (P42574 176-277 limits assumed)
Excerpt: as §1

caspase-3 [4] = molecular target: T1, caspase-3; assay: Modification of caspase-3 with extender (mass-spectroscopy); assay type: binding; settings: ambient temperature, 3.5 hours
Excerpt: as §2

[5] = assay type: physicochemical
Protocol: The thiirane (17 mg, 0.047 mmol) was dissolved in dry DCM (5 ml), chilled in an ice-water bath, and treated with 5 ml trifluoroacetic acid. The reaction was allowed to proceed on ice for 40 minutes at which point it was evaporated to dryness and purified using reverse phase HPLC to yield compound 40 as a white solid (1.8 mg, 0.0058 mmol, 13%, ES (+) MS m/z=332 (M+Na)). […] It is generally preferred that the conjugation reaction of this extender to the active site thiol of caspases is performed for only 2–5 minutes at pH 6 and at low stoichiometries with respect to enzyme (1–3 equivalents)

[6] = Table 2, glutamate-grafted N-tosyl-proline derivatives
[7] = untethered versions of selected ligand candidates, Example 6

Ki (caspase-3 [1]): ~0.16 µM
Ki better than compound 18 (caspase-3 [1]): more than 10 fold
Ki (caspase-3 [1]; Table 4): 0.16 µM
improvement of binding by addition of the salicylate sulfonamide (caspase-3 [1]; versus salicylate sulfonamide-less fragment): about 200 fold
SMILES: O=C[C@H](CC(=O)O)NC(=O)c1ccc(CNS(=O)(=O)c2ccc(O)c(C(=O)O)c2)cc1 [compound 21]

Ki (caspase-3 [1]): 0.33 µM
SMILES: CS(=O)(=O)c1ccc(C(=O)NCCCS(=O)(=O)Cc2cccc(S(=O)(=O)N[C@H](C=O)CC(=O)O)c2)s1 [compound 22]

Ki (caspase-3 [1]; Table 4): 15.3 µM
change of binding affinity relative to compound 18 (caspase-3 [1]): reduced the affinity by a factor of five
SMILES: O=C[C@H](CC(=O)O)NC(=O)CCCCCNS(=O)(=O)c1cccc(C(=O)O)c1 [compound 19]

SMILES: O=C(O)CCCCC[C@H](NC(=O)c1ccc(S(=O)(=O)N2CCCC2C(=O)O)cc1)C(=O)O (stereo partly shown) [compound 9]
Ki (E. coli TS; [6]): 14 ± 6 µM

selection in tethering [2]: not selected
selection in tethering [3]: selected
SMILES: CS(=O)(=O)c1ccc(C(=O)NCCSSCCN)s1 [ligand candidate 16]

SMILES: O=C(O)CCC[C@H](NC(=O)c1ccc(S(=O)(=O)N2CCCC2C(=O)O)cc1)C(=O)O (stereo partly shown) [compound 7]
Ki (E. coli TS; [6]): 23 ± 6 µM

SMILES: O=C(O)CCCC[C@H](NC(=O)c1ccc(S(=O)(=O)N2CCCC2C(=O)O)cc1)C(=O)O (stereo partly shown) [compound 8]
Ki (E. coli TS; [6]): 32 ± 2 µM

selection in tethering [2]: selected
selection in tethering [3]: not selected
SMILES: NCCSSCCNS(=O)(=O)c1ccc(O)c(C(=O)O)c1 [ligand candidate 15]

Ki (caspase-3 [1]): 0.051 µM
SMILES: CC(=O)N[C@@H](CCC(=O)O)C(=O)N[C@H](C(=O)N[C@H](C=O)CC(=O)O)C(C)C [compound I, reference compound]

SMILES: O=C(O)COc1ccc(/C=N\OCCCCCCO/N=C/c2ccc(S(=O)(=O)N3CCCC3C(=O)O)cc2)cc1 (stereo not shown) [compound 3]
Ki (E. coli TS; [7]): ~40 µM

SMILES: O=C(O)CCCNC(=O)c1ccc(S(=O)(=O)N2CCCC2C(=O)O)cc1 (stereo not shown) [compound 12]
Ki (E. coli TS; [6]): 246 ± 46 µM

SMILES: Cc1ccc(S(=O)(=O)N2CCC[C@@H]2C(=O)O)cc1 [compound 1, N-tosyl-D-proline]
mode of inhibition (E. coli TS; competed with the natural substrate dUMP): weak but competitive inhibitor
Ki (E. coli TS; free acid, Michaelis-Menten kinetics): 1100 ± 250 µM

modification of caspase 3 large subunit (caspase-3 [4]): complete modification
SMILES: CC(=O)SCC(=O)N[C@@H](CC(=O)O)C(=O)COC(=O)c1c(Cl)cccc1Cl [compound 13, 2,6-Dichloro-benzoic acid 3-(2-acetylsulfanyl-acetylamino)-4-carboxy-2-oxo-butyl ester]

SMILES: O=C(O)C[C@H](NC(=O)OCc1ccccc1)C(=O)C1CS1 (stereo partly shown) [compound 40]
stability as solution in methanol [5]: stable for months
stability in DMSO [5]: not stable

decrease in binding affinity versus compound I (caspase-3 [1]; addition of salicylate sulfonamide moiety to compound I): ~300 fold
SMILES: CC(C)[C@H](NC(=O)[C@H](CCC(=O)O)NS(=O)(=O)c1ccc(O)c(C(=O)O)c1)C(=O)N[C@H](C=O)CC(=O)O [compound II]

Ki (caspase-3 [1]; Table 4): > 100 µM
change of binding affinity relative to compound 18 (caspase-3 [1]): ablated binding affinity entirely
SMILES: O=C[C@H](CC(=O)O)NC(=O)CCCCCNS(=O)(=O)c1ccccc1 [compound 20]

SMILES: O=C(O)C[C@H](NC(=O)c1ccc(S(=O)(=O)N2CCCC2C(=O)O)cc1)C(=O)O (stereo partly shown) [compound 6]
Ki (E. coli TS; [6]): 242 ± 3 µM

SMILES: NC(=O)CC[C@H](NC(=O)c1ccc(S(=O)(=O)N2CCCC2C(=O)O)cc1)C(=O)O (stereo partly shown) [compound 11]
Ki (E. coli TS; [6]): 61 ± 14 µM

SMILES: NC(=O)[C@H](CCC(=O)O)NC(=O)c1ccc(S(=O)(=O)N2CCCC2C(=O)O)cc1 (stereo partly shown) [compound 10]
Ki (E. coli TS; [6]): 378 ± 69 µM

selection in tethering [2]: not selected
selection in tethering [3]: not selected
SMILES: NCCSSCCNS(=O)(=O)c1cccc(C(=O)O)c1 [ligand candidate 17]

SMILES: O=C(O)COc1ccc(/C=N/OCCCO/N=C/c2ccc(S(=O)(=O)N3CCCC3C(=O)O)cc2)cc1 (stereo not shown) [compound 2]
Ki (E. coli TS; [7]): ~55 µM
